For experiment [1], the species on record is Rattus norvegicus. Nature of the experiment: Potency index, spasmolytic activity in Wistar rat ileum relative to gigantol. The experiment is classed as functional.
Experiment [2] is filed under the species Rattus norvegicus. As to the kind of experiment: Spasmolytic activity in Wistar rat ileum. The experiment is classed as functional.

With `COc1cc(OC)c(-c2nc3ccccc3[nH]2)cc1OC`, in the experiment filed under Rattus norvegicus [1], the “Ratio IC50” value is 1.45. For the same compound, in the experiment filed under Rattus norvegicus [2], the maximal response (Emax) stood at 90% and the IC50 was found to be 4 µM.

In the case of `c1ccc2[nH]c(-c3ccc4c(c3)OCO4)nc2c1`, in the experiment listed under Rattus norvegicus [1], the “Ratio IC50” value turned out to be 1.71. Moreover, in the experiment filed under Rattus norvegicus [2], the Emax is 59% and it took 3.4 µM to reach half-maximal inhibition (IC50).

Turning to `COc1ccc(-c2nc3ccccc3[nH]2)cc1`, the “Ratio IC50” value in the experiment filed under Rattus norvegicus [1] stood at 0.55. Moreover, in the experiment filed under Rattus norvegicus [2], the Emax is 54.9% and the IC50 is 10.6 µM.

For `Oc1ccc(-c2nc3ccccc3[nH]2)cc1`, the “Ratio IC50” value in the experiment filed under Rattus norvegicus [1] is listed as 1.11. In the experiment listed under Rattus norvegicus [2], this compound returned a maximal response (Emax) of 61.2% and a 50% inhibitory concentration (IC50) of 5.25 µM.

With `COc1ccccc1-c1nc2ccccc2[nH]1`, the “Ratio IC50” value in the experiment filed under Rattus norvegicus [1] is given as 0.75. In the experiment filed under Rattus norvegicus [2], this compound gave an Emax of 52.8% and a half-inhibitory concentration (IC50) of 7.7 µM.

On to `c1ccc2[nH]c(-c3ccncc3)nc2c1`, for which, in the experiment filed under Rattus norvegicus [1], the “Ratio IC50” value came to 0.03. In the experiment filed under Rattus norvegicus [2], this compound showed a maximum response (Emax) of 50% and an IC50 of 190 µM.

With `COc1ccc(-c2nc3ccccc3[nH]2)cc1OC`, the “Ratio IC50” value in the experiment listed under Rattus norvegicus [1] was 1.04. In the experiment listed under Rattus norvegicus [2], this compound had an Emax of 55% and an IC50 of 5.6 µM.

On to `c1ccc(COc2ccccc2-c2nc3ccccc3[nH]2)cc1`, for which the “Ratio IC50” value in the experiment listed under Rattus norvegicus [1] came to 0.21. In addition, in the experiment listed under Rattus norvegicus [2], the maximum response (Emax) worked out at 51.4% and half-maximal inhibition (IC50) was put at 28.2 µM.

On to `CCOc1ccccc1-c1nc2ccccc2[nH]1`, for which the “Ratio IC50” value in the experiment filed under Rattus norvegicus [1] worked out at 3. In the experiment filed under Rattus norvegicus [2], the Emax turned out to be 50% and the IC50 was found to be 1.94 µM.

Consider `CCOc1ccccc1-c1nc2ccccc2n1CC`, for which, in the experiment listed under Rattus norvegicus [1], the “Ratio IC50” value turned out to be 3.39. Besides, in the experiment listed under Rattus norvegicus [2], the Emax was found to be 60% and the IC50 amounted to 1.72 µM.

`COc1ccc(-c2nc3ccccc3[nH]2)c(OC)c1OC`: in the experiment listed under Rattus norvegicus [1], the “Ratio IC50” value is 3.23. In the experiment listed under Rattus norvegicus [2], this compound returned an Emax of 65% and an IC50 of 1.8 µM.

Take `O=[N+]([O-])c1ccccc1-c1nc2ccccc2[nH]1`: in the experiment filed under Rattus norvegicus [1], the “Ratio IC50” value amounted to 0.07. In the experiment filed under Rattus norvegicus [2], this compound showed an Emax of 11.1% and an IC50 of 78.6 µM.

In the case of `COc1ccc(Cc2nccc3cc(OC)c(OC)cc23)cc1OC` [PAPAVERINE], the “Ratio IC50” value in the experiment filed under Rattus norvegicus [1] turned out to be 3.76. This compound also had an Emax in the experiment filed under Rattus norvegicus [2] of 96.7%.

Regarding `CCCOc1ccccc1-c1nc2ccccc2[nH]1`, the “Ratio IC50” value in the experiment listed under Rattus norvegicus [1] is given as 3.06. Besides, in the experiment listed under Rattus norvegicus [2], the maximal response (Emax) came to 80% and the IC50 stood at 1.9 µM.

For the compound `Clc1ccc(COc2ccccc2-c2nc3ccccc3[nH]2)cc1`, the “Ratio IC50” value in the experiment filed under Rattus norvegicus [1] was 0.09. In the experiment listed under Rattus norvegicus [2], the Emax is 38.2% and the IC50 came out at 59 µM.

Consider `COc1cc(-c2nc3ccccc3[nH]2)ccc1O`, for which, in the experiment listed under Rattus norvegicus [1], the “Ratio IC50” value amounted to 4.9. In the experiment filed under Rattus norvegicus [2], this compound gave an Emax of 70% and an IC50 of 1.19 µM.

Take `Oc1ccccc1-c1nc2ccccc2[nH]1`: the “Ratio IC50” value in the experiment listed under Rattus norvegicus [1] is reported as 1.13. For the same compound, in the experiment listed under Rattus norvegicus [2], the Emax amounted to 42.4% and the IC50 is 5.15 µM.

For `Cc1ccc(COc2ccccc2-c2nc3ccccc3[nH]2)cc1`, in the experiment filed under Rattus norvegicus [1], the “Ratio IC50” value was 0.38. In the experiment listed under Rattus norvegicus [2], this compound had an Emax of 47.7% and an IC50 of 15 µM.

With `CN(C)c1ccc(-c2nc3ccccc3[nH]2)cc1`, the “Ratio IC50” value in the experiment listed under Rattus norvegicus [1] was 0.19. In the experiment filed under Rattus norvegicus [2], the Emax turned out to be 34.9% and the IC50 was found to be 30 µM.

Values taken from ChEMBL document CHEMBL1146025, “Design, microwave-assisted synthesis, and spasmolytic activity of 2-(alkyloxyaryl)-1H-benzimidazole derivatives as constrained stilbene bioisosteres” (Bioorg Med Chem Lett, 2006).
